Patent US5246947A, “Substituted pyridinylamino-1,2-benzisothiazoles and their use for treating depression” (Hoechst-Roussel Pharmaceuticals Incorporated, priority 1992, dated 1993)
Counter-ions that a name gives are not always drawn. Like-named read-outs stand apart in the source and are kept apart here.

Key:
[1] = test system: norepinephrine (NE) uptake; assay: [^3 H]-Norepinephrine Uptake in Rat Whole Brain Synaptosomes; assay type: biochemical, rat (male CR Wistar); settings: [^3 H]-NE 50 nM, 37° C., 5 min, Table 2
α2-Receptor = molecular target: T1, α2-Receptor (Rattus norvegicus, UniProt P22909); assay: [^3 H]-Clonidine Binding: α2-Receptor; parameters: species or system rat (male Wistar)
T1 construct: the cortical tissue rapidly dissected; from tissue; host or cells: cortical tissue of male Wistar rats, washed membrane suspension
T1 sequence (P22909 1-465): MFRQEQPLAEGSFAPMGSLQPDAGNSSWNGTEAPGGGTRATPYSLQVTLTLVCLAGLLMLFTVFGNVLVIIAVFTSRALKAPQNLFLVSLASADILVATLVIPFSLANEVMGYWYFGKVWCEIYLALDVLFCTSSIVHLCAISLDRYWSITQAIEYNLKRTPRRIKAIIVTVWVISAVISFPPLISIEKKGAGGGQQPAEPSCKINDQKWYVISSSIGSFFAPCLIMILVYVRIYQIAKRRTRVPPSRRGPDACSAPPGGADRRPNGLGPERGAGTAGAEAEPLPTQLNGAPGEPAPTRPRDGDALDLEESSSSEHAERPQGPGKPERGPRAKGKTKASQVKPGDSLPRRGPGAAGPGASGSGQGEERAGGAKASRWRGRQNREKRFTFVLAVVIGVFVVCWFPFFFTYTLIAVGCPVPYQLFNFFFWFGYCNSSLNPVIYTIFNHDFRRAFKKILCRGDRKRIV
Method: [^3 H]-Clonidine Binding: α2 -Receptor
The purpose of this assay is to assess the interaction of compounds with central α2 -receptors.
a. 57.2 g Tris HCl 16.2 Tris Base-bring to 1 liter (0.5M Tris buffer, pH 7.7) b. Make a 1:10 dilution in distilled H2 O (0.05M Tris buffer, pH 7.7)
Tris buffer containing physiological ions b. Dilute 1:10 in distilled H2 O. This yields 0.05 M Tris HCl, pH 7.7; containing NaCl (120 mM), KCl (5 mM), CaCl2 (2 mM) and MgCl2 (1 mM) 3. [4-^3 H]-Clonidine hydrochloride (20-30 Ci/mmol) is obtained from New England Nuclear.
Clonidine-HCl is obtained from Boehringer Ingelheim. A stock solution of 0.1 mM clonidine is made up to determine nonspecific binding. This yields a final concentration of 1 μM in the assay (20 μl to 2 ml).
Male Wistar rats are sacrified by decapitation and the cortical tissue rapidly dissected. The tissue is homogenized in 50 volumes of 0.05M Tris buffer, pH 7.7 (buffer 1b) with the Brinkman Polytron, then centrifuged at 40,000 g for 15 minutes. […]
Tissue homogenates are incubated for 20 minutes at 25° C. with 3 nM [^3 H]-clonidine and varying drug concentrations, then immediately filtered under reduced pressure on Whatman GF/B filters. […] Ten ml of liquiscint counting solution is added to each sample which is then counted by liquid scintillation spectroscopy. […] IC50 values are calculated using log-probit analysis.

TPA-induced ear edema = assay: TPA-Induced Ear Edema (TPAEE); assay type: in vivo, mouse (female Swiss Webster); settings: topical, ear plug weight after about 5 hours, Table 3
Method: The dermatological activity of the compounds was ascertained according to the following method.
TPA-Induced Ear Edema (TPAEE)
The purpose of this assay was to determine the ability of a topically applied compound to prevent ear edema induced by topical application of TPA (phorbol 12-myristate acetate). Female Swiss Webster mice topically received TPA (10 μg/ear) on the right ear and vehicle on the left ear. […] After about 5 hours, the animals are sacrificed and a 4 mm diameter plug is taken from each ear and weighed. The difference between the right and left ear plug weights for each animal was determined. The antiinflammatory activity of the test compound is expressed as the mean percent change in ear plug weight of the treated animals compared to the mean percent change in the plug weight of the control animals. (Young, J. M. et al., J. Invest. Dermatol., 80 (1983), pp. 48-52.)

[2] = molecular target: T2, Brain AChE (acetylcholinesterase) (Rattus norvegicus, UniProt P37136); assay: biochemical; parameters: species or system rat (male Wistar); settings: rat striatum; 5 mM acetylthiocholine final; pH 7.2; Table 1; read-out: Inhibitory Concentration Brain AChE
T2 construct: corpora striata dissected free, weighed and homogenized in 19 volumes; from tissue; host or cells: corpora striata of male Wistar rats, whole homogenate
Description: Cholinesterases are found throughout the body, both in the brain and in serum. However, only brain acetylcholinesterase (AChE) distribution is correlated with central cholinergic innervation. […] We have determined in vitro inhibition of acetylcholinesterase activity in rat striatum according to the method described below.
In Vitro Inhibition of Acetylcholinesterase Activity in Rat Striatum
The method described below was used in this invention for assaying anticholinesterase activity. This is a modification of the method of Ellman et al., Biochem. Pharmacol. 7, 88 (1961).
1. 0.05M Phosphate buffer, pH 7.2
(c) add (a) to (b) until pH reaches 7.2
4. A 2 mM stock solution of the test drug is made up in a suitable solvent and brought to volume with 0.5 mM DTNB (reagent 3). Drugs are serially diluted (1:10) such that the final concentration (in cuvette) is 10^-4 M and screened for activity. If active, IC50 values are determined from the inhibitory activity of subsequent concentrations.
Enzyme activity is measured with the Beckman DU-50 spectrophotometer. This method can be used for IC50 determinations and for measuring kinetic constants.
Reagents are added to the blank and sample cuvettes as follows:
This program also calculates the rate of absorbance change for each cuvette.
Substrate concentration is 10 mM diluted 1:2 in assay yielding final concentration of 5 mM.

[3] = test system: serotonin (5-hydroxytryptamine, 5HT) uptake; assay: [^3 H]-Serotonin Uptake in Rat Whole Brain and Hypothalamic Synaptosomes; assay type: biochemical, rat (male CR Wistar); settings: [^3 H]-5HT 50 nM, 37° C., 5 min, Table 2
Method: [^3 H]-Serotonin Uptake in Rat Whole Brain and Hypothalamic Synaptosomes
This activity is determined in an assay which measures [^3 H]-serotoninuptake in rat whole brain and hypothalamic synaptosomes.
Male CR Wistar rats (100-125 g)
Prepare a 1 liter batch containing the following salts.
3. A 0.1 mM stock solution of serotonin creatinine SO4 is made up in 0.01N HCl. This is used to dilute the specific activity of the radiolabeled 5HT.
4. 5-[1,2-^3 H(N)]-Hydroxytryptamine creatinine sulfate (serotonin), specific activity 20-30 Ci/mmol, is used.
The final desired concentration of [^3 H]-5HT in the assay is 50 nM. The dilution factor is 0.8. The KHBB is made up to contain 62.5 nM of [^3 H]-5HT.
5. For most assays, a 1 mM stock solution of the test compound is made up in a suitable solvent and serially diluted such that the final concentration in the assay ranges from 2×10^-8 to 2×10^-5 M. Seven concentrations are used for each assay.
Male Wistar rats are decapitated and the brain rapidly removed.
Tubes are incubated at 37° C. under a 95% O2 /5% CO2 atmosphere for 5 minutes. For each assay, 3 tubes are incubated with 20 μl of vehicle at 0° C. in an ice bath. After incubation all tubes are immediately centrifuged at 4000 g for 10 minutes. […] The tubes are vigorously vortexted, decanted into scintillation vials, and counted in 10 ml of Liquiscint scintillation counting cocktail. […]

T2 sequence (P37136 32-614): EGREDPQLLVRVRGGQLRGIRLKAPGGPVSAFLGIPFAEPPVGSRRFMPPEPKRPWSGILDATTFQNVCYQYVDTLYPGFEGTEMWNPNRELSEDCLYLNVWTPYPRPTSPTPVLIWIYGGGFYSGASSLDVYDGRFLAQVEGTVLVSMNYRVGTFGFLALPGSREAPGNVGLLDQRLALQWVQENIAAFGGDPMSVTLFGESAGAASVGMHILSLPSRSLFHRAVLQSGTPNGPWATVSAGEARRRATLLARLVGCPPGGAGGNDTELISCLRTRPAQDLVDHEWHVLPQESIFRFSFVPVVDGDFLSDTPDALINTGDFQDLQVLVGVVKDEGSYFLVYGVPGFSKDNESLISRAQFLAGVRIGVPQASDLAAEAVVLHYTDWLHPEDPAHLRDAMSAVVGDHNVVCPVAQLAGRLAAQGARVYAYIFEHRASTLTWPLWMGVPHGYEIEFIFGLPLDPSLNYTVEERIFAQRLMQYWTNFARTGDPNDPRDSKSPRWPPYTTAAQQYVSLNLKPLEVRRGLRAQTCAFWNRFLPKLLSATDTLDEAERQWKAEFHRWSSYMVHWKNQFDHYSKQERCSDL

Compound: CN(C)CCC=C1c2ccccc2CCc2ccccc21 [Amitriptyline]
- IC50 [1]: 7700 nM

Compound: CNCCC=C1c2ccccc2CCc2ccccc21 [Notriptyline]
- IC50 [1]: 4000 nM

Compound: Cn1ccc2cc(Nc3ccncc3)ccc21 [1-Methyl-5-(4-pyridinylamino)-1H-indole]
- IC50 (α2-Receptor): 12 nM
- Edema Reduction (TPA-induced ear edema; 10 μg/ear): -67%

Compound: CCCN(c1ccncc1)c1ccc2c(ccn2C)c1 [1-Methyl-5-(propyl-4-pyridinylamino)-1H-indole maleate]
- IC50 [2]: 31900 nM
- IC50 [3]: 760 nM
- IC50 (α2-Receptor; rat cortical tissue, 3 nM [^3 H]-clonidine, 25° C., 20 min, Table 2, read-out: [^3 H]-Clonidine Binding IC50): 330 nM
- IC50 [1]: 34 nM

Compound: COc1ccc2c(c1)c(CC(=O)O)c(C)n2C(=O)c1ccc(Cl)cc1 [Indomethacin, reference compound]
- Edema Reduction (TPA-induced ear edema; at 1 mg/ear): -86%
